Results: PMC10482691, “LTP induction by structural rather than enzymatic functions of CaMKII” (Nature, 2023)
“And” between values parts separate entries of the source, which are not always exact repeats. Equal entries are not always repeated.

Tests used:
[1] = tested on: paCaMKII binding to GST-2BC; experiment: Blue light-induced paCaMKII pulldown to immobilized GST-2BC; conditions: Dark, 100 µM ADP
Source text: Extended Data Fig. 1 paCaMKII photoactivation-induced sLTP requires GluN2B binding. Data are presented as mean values +/− SEM. a, Representative images of GFP-paCaMKII WT and mCherry-2BC expressed in cultured hippocampal neurons before and after blue light stimulation. Time course of correlation indices of GFP-paCaMKII and mCh-2BC after photoactivation. Images were acquired in a single plane ever 10 s (n = 4 cells). Scale bar indicates 10 µm. b, Schematic of blue light-induced paCaMKII pulldown to immobilized GST-2BC. c, Binding of […] to immobilized GST-2BC was induced by blue light in the presence of either 100 ADP µM alone or without nucleotide. (n = 4 independent samples; *p < 0.05; one-way Kruskal Wallis with Dunn’s comparison test). Dark:Light+ADP p = 0.0132; Dark:Light-ADP p = 0.1860; Light+ADP:Light-ADP p = 0.9779. d, Schematic of how K42M and I205K CaMKII mutations affect enzymatic activity and the induction of GluN2B binding. e, Representative images of dissociated mouse WT and GluN2B^ΔCaMKII hippocampal cultures expressing GFP-paCaMKII WT and mCherry cell fill before and after photoactivation. Scale bar indicates 5 µm. n = 9, 9 cells; See Fig. 1f, g (right) for quantification. Source data

[2] = molecular target: purified CaMKIIα binding to GST–GluN2B-c WT (Homo sapiens, UniProt Q9UQM7); experiment: CaMKII binding to immobilized GST–GluN2B-c in vitro; conditions: Ca2+/CaM, 4 mM ADP
Procedure: CaMKII–GluN2B binding assays were done as described[9],[13],[25]. Briefly, GST–GluN2B-c tail (GST–2BC) was immobilized on anti-GST antibody-coated microtiter plates (Thermo Scientific), blocked for 30 min with 5% BSA and then overlaid with […] CaMKII (subunit concentration) in PIPES-buffered saline (pH 7.2) containing 2 mM Ca^2+, 1 μM CaM, 1 mM Mg^2+, 0.1% BSA and 0.1% Tween-20 for 20 min at room temperature. […] After extensive washes in buffer containing 1 mM EGTA, GST–2BC and bound CaMKII were eluted for 10 min in SDS loading buffer at 95 °C. Bound CaMKII was measured via immunoblot.

[3] = tested on: CA3–CA1 Schaffer collateral pathway LTP; set-up: method as in PMID 2549638; conditions: previous studies; cited from earlier work

Row | SMILES | binding to immobilized GST-2BC (immunoblot) [1] | bound CaMKIIα (immunoblot, relative) [2] | effect on LTP [3]
1 | Nc1ncnc2c1ncn2[C@@H]1O[C@H](COP(=O)(O)OP(=O)(O)O)[C@@H](O)[C@H]1O [ADP] | 54.536 and 63.536 and 53.536 | 2.712 and 2.4126 and 1.817 | –
2 | CC1CNCCN1S(=O)(=O)c1cccc2cnccc12 (stereo not drawn) [H7] | – | – | LTP inhibition
